For assay [1], the target named is pEGFR (Tyr1068) in PC-9 cells (Ex19Del) (Homo sapiens (Human), UniProt P00533, DEL746-750). In words: PC-9 pEGFR AlphaLISA assay. The conditions noted are these: 4 hours incubation, p-EGFR (Tyr1068) AlphaLISA, read-out: Ext pEGFR_PC-9 Ex19Del IC50. It counts as cell-based. The essentials: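 Readout: AlphaLISA SureFire Ultra signal in cell lysates, with acceptor beads for 1.5-2 h and donor beads overnight at room temperature in the dark. Beforehand, unstimulated cells in 10% FBS medium received compounds (10 points, 4-fold steps) for 4 h at 37° C. IC50 came from percent inhibition curves.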
Chain of pEGFR (Tyr1068) in PC-9 cells (Ex19Del) (P00533 other isoform, or with tags, fused parts or gaps del 746-750): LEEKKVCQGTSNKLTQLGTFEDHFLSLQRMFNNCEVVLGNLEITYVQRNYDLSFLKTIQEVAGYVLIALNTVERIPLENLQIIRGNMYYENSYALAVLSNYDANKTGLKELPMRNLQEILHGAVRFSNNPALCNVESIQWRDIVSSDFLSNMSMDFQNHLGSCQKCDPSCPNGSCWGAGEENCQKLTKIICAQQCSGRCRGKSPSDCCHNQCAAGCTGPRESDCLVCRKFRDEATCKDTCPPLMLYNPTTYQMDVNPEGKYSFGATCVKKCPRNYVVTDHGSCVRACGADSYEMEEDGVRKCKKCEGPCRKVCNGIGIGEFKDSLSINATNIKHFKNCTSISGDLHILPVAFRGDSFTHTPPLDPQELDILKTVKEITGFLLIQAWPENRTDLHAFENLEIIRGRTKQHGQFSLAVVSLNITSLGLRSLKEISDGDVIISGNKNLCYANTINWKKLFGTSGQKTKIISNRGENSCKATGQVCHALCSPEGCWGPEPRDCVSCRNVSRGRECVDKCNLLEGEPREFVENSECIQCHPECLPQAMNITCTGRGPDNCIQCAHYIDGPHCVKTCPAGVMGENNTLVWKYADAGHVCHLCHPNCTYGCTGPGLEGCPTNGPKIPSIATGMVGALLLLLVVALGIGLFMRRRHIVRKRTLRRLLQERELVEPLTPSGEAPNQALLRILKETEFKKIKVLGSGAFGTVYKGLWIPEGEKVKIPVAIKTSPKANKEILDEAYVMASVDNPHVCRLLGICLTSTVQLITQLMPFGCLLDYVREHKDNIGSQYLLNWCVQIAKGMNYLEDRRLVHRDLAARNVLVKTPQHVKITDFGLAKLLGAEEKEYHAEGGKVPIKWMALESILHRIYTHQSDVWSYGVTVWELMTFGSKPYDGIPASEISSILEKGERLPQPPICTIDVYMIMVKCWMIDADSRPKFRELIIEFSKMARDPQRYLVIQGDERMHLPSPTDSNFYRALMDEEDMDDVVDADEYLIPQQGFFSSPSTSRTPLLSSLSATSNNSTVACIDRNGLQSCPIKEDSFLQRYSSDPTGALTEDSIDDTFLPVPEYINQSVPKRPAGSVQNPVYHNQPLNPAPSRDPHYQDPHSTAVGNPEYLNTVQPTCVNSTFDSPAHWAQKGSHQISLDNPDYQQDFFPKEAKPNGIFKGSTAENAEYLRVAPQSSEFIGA
(In general: In Alpha technology, singlet oxygen from a donor bead excites a nearby acceptor bead.)

The target in the next assay is EGFR L858R (Homo sapiens (Human), UniProt P00533, L858R). In words: Biochemical EGFR inhibition assay, EGFR L858R. The conditions noted are these: Caliper mobility shift; 1.0 mM ATP or ATP Km; read-out: Enz EGFR_L858R IC50.
Chain of EGFR L858R (P00533 25-1210 L858R): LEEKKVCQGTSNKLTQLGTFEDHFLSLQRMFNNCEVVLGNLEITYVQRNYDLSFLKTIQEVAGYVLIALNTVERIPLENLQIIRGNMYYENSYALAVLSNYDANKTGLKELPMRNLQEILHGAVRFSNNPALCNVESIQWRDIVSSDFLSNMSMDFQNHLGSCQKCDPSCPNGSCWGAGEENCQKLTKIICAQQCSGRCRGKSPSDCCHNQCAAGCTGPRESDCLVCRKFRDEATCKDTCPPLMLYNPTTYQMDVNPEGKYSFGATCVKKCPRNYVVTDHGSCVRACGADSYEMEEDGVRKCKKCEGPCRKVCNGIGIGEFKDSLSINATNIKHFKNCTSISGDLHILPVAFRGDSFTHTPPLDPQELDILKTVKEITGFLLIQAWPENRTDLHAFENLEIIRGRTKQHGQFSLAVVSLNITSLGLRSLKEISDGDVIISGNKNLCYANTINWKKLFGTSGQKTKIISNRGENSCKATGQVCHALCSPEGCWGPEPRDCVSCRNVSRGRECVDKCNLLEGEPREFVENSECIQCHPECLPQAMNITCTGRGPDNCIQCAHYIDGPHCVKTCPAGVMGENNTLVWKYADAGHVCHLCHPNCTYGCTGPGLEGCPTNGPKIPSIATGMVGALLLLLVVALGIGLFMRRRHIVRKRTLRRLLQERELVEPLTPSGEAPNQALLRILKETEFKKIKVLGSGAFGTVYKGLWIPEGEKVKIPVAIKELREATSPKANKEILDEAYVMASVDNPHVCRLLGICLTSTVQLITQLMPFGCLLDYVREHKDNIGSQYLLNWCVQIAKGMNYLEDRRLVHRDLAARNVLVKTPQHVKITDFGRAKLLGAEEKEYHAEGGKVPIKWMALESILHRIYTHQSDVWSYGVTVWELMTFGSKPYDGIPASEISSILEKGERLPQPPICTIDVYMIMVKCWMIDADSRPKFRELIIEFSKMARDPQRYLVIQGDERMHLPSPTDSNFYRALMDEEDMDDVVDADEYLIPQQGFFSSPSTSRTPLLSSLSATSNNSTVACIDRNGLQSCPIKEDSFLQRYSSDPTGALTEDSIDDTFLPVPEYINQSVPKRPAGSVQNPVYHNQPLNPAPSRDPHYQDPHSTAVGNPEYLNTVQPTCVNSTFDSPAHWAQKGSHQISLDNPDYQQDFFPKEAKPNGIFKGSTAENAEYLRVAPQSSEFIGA
The target of another assay is EGFR (d746-750) (Homo sapiens (Human), UniProt P00533, DEL746-750). As to the kind of experiment: Biochemical EGFR inhibition assay, EGFR (d746-750). Particulars: Caliper mobility shift; 1.0 mM ATP or ATP Km; read-out: Enz EGFR_Exon19-del746-750 IC50.
Chain of EGFR (d746-750) (P00533 other isoform, or with tags, fused parts or gaps del 1-694/del 746-750 limits assumed): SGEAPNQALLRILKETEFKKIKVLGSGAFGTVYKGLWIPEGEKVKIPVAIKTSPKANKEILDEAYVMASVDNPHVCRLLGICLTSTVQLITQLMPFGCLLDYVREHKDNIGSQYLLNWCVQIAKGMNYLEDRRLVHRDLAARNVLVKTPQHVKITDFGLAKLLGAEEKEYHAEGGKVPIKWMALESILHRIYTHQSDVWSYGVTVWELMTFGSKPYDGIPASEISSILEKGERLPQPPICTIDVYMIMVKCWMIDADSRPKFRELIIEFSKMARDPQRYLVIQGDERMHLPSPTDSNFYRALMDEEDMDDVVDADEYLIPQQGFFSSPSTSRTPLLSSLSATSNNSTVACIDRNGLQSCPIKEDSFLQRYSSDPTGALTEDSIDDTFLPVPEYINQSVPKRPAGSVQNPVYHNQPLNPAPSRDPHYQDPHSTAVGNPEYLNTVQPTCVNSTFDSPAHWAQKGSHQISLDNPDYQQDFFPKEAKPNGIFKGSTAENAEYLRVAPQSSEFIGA

Structures are written as SMILES.

What is called IC50 is the point on the concentration scale where inhibition reaches its midpoint. As for `COc1cc2ncnc(-c3cn(CC(F)F)nc3-c3ccccc3)c2cc1NC(=O)c1ccc(C2CC2)nc1` [Example 333, 6-cyclopropyl-N-(4-(1-(2,2-difluoroethyl)-3-phenyl-1H-pyrazol-4-yl)-7-methoxyquinazolin-6-yl) nicotinamide], the results for the half-maximal inhibitory concentration (IC50) (in assay [1]; at EGFR L858R; at EGFR (d746-750)) were 1.7 nM, 1.3 nM and 0.8 nM, respectively.
The like results for `COc1cc2ncnc(-c3cn(C)nc3-c3ccccc3)c2cc1N1CC[C@H](F)[C@@H](O)C1` (single isomer, unassigned) [Example 172, (3S,4S)-4-fluoro-1-(7-methoxy-4-(1-methyl-3-phenyl-1H-pyrazol-4-yl)quinazolin-6-yl) piperidin-3-ol or (3R,4R)-4-fluoro-1-(7-methoxy-4-(1-methyl-3-phenyl-1H-pyrazol-4-yl)quinazolin-6-yl) piperidin-3-ol] were, in that order, 11.7 nM, 6.7 nM and 2.2 nM.
The corresponding values for `COc1cc2ncnc(-c3cn(C)nc3-c3ccccc3)c2nc1O[C@@H](C)c1cscn1` (single isomer, unassigned) [Example 50, (S)-4-(1-((7-methoxy-4-(1-methyl-3-phenyl-1H-pyrazol-4-yl)pyrido[3,2-d]pyrimidin-6-yl)oxy)ethyl)thiazole or (R)-4-(1-((7-methoxy-4-(1-methyl-3-phenyl-1H-pyrazol-4-yl)pyrido[3,2-d]pyrimidin-6-yl)oxy)ethyl)thiazole] are 0.3 nM, 0.5 nM and 0.3 nM.
Regarding `COc1cc2ncnc(-c3cn(C)nc3-c3ccccc3F)c2cc1NC(=O)c1ccc(C2CC2)nc1` [Example 230, 6-cyclopropyl-N-(4-(3-(2-fluorophenyl)-1-methyl-1H-pyrazol-4-yl)-7-methoxyquinazolin-6-yl) nicotinamide], the IC50 in assay [1] was 2.3 nM; at EGFR L858R, 1.5 nM; at EGFR (d746-750), 0.9 nM.
As for `COc1cc2ncnc(-c3cn(C)nc3-c3ccccc3)c2nc1NC(=O)[C@]12COC[C@H]1C2` (single isomer, unassigned) [Example 432, (1S,5S)—N-(7-methoxy-4-(1-methyl-3-phenyl-1H-pyrazol-4-yl)pyrido[3,2-d]pyrimidin-6-yl)-3-oxabicyclo[3.1.0]hexane-1-carboxamide or (1R,5R)—N-(7-methoxy-4-(1-methyl-3-phenyl-1H-pyrazol-4-yl)pyrido[3,2-d]pyrimidin-6-yl)-3-oxabicyclo[3.1.0]hexane-1-carboxamide], the IC50 in assay [1] is 2.5 nM; at EGFR L858R it was 1.9 nM; on EGFR (d746-750), 0.9 nM.
Turning to `COc1cc2ncnc(-c3cn(C)nc3-c3ccccc3)c2cc1OC1COCCOC1` [Example 21, 6-((1,4-dioxepan-6-yl)oxy)-7-methoxy-4-(1-methyl-3-phenyl-1H-pyrazol-4-yl)quinazoline], the 50% inhibitory concentration (IC50) in assay [1] turned out to be 10.5 nM; on EGFR L858R it was 7.4 nM; at EGFR (d746-750), 3 nM.
The like results for `COc1cc2ncnc(-c3cn(C)nc3-c3ccccc3)c2cc1OC(=O)N1CCOC(C)(C)C1` [Example 80, 7-methoxy-4-(1-methyl-3-phenyl-1H-pyrazol-4-yl)quinazolin-6-yl 2,2-dimethylmorpholine-4-carboxylate] were, in that order, 9.6 nM, 6 nM and 3.1 nM.
The like results for `COc1cc2ncnc(-c3cn(C)nc3-c3ccccc3)c2cc1O[C@@H](C)C1COC1` [Example 22, (S)-7-methoxy-4-(1-methyl-3-phenyl-1H-pyrazol-4-yl)-6-(1-(oxetan-3-yl)ethoxy)quinazoline] were, in that order, 4.8 nM, 1.7 nM and 1.2 nM.
The corresponding values for `COc1cc2ncnc(-c3cn(C4COC4)nc3-c3ccccc3)c2cc1OC(=O)N1CCN(C)C[C@@H]1C` [Example 69, 7-methoxy-4-(1-(oxetan-3-yl)-3-phenyl-1H-pyrazol-4-yl)quinazolin-6-yl (S)-2,4-dimethylpiperazine-1-carboxylate] are 5.8 nM, 7.1 nM and 3.1 nM.
For `COc1cc2ncnc(-c3cn(C)nc3-c3ccccc3)c2nc1NC(=O)C1(C)CCCO1` (stereo not drawn) [Example 316, N-(7-methoxy-4-(1-methyl-3-phenyl-1H-pyrazol-4-yl)pyrido[3,2-d]pyrimidin-6-yl)-2-methyltetrahydrofuran-2-carboxamide], the IC50 stood at 3.1 nM in assay [1], 3.5 nM at EGFR L858R and 0.8 nM at EGFR (d746-750).
The corresponding values for `COc1cc2ncnc(-c3cn(C)nc3-c3ccccc3)c2cc1NC(=O)c1cncc(C)c1` [Example 321, N-(7-methoxy-4-(1-methyl-3-phenyl-1H-pyrazol-4-yl)quinazolin-6-yl)-5-methylnicotinamide] are 5.3 nM, 5.2 nM and 2.7 nM.
The corresponding values for `CCOc1cc2ncnc(-c3cn(C)nc3-c3ccccc3)c2cc1OC` [Example 25, 7-ethoxy-6-methoxy-4-(1-methyl-3-phenyl-1H-pyrazol-4-yl)quinazoline] are 2.1 nM, 1.4 nM and 0.9 nM.
The corresponding values for `CCC(=O)Nc1cc2c(-c3cn(C)nc3-c3c(F)cccc3F)ncnc2cc1-c1ccn(C)n1` [Example 453, N-(4-(3-(2,6-difluorophenyl)-1-methyl-1H-pyrazol-4-yl)-7-(1-methyl-1H-pyrazol-3-yl)quinazolin-6-yl)propionamide] are 0.4 nM, 1.3 nM and 0.7 nM.
Regarding `COc1cc2ncnc(-c3cn(C)nc3-c3ccccc3)c2cc1[C@H](C)O` (single isomer, unassigned) [Example 116, (S)-1-(7-methoxy-4-(1-methyl-3-phenyl-1H-pyrazol-4-yl)quinazolin-6-yl)ethan-1-ol or (R)-1-(7-methoxy-4-(1-methyl-3-phenyl-1H-pyrazol-4-yl)quinazolin-6-yl)ethan-1-ol], the IC50 in assay [1] is 11.5 nM; at EGFR L858R, 1.2 nM; on EGFR (d746-750), 1.1 nM.
The corresponding values for `COc1cc2ncnc(-c3cn(C)nc3-c3ccccc3)c2cc1NC(=O)[C@@H](C)F` (single isomer, unassigned) [Example 245, (R)-2-fluoro-N-(7-methoxy-4-(1-methyl-3-phenyl-1H-pyrazol-4-yl)quinazolin-6-yl) propenamide or (S)-2-fluoro-N-(7-methoxy-4-(1-methyl-3-phenyl-1H-pyrazol-4-yl)quinazolin-6-yl) propenamide] are 2.6 nM, 1.9 nM and 1 nM.
The corresponding values for `COc1cc2ncnc(-c3cn(C)nc3-c3ccccc3)c2cc1OC(=O)N1CCN(C)CC1C` (stereo not drawn) [Example 57, 7-methoxy-4-(1-methyl-3-phenyl-1H-pyrazol-4-yl)quinazolin-6-yl 2,4-dimethylpiperazine-1-carboxylate] are 2.2 nM, 2.3 nM and 1.7 nM.
As to `COc1cc2ncnc(-c3c(-c4ccccc4)nn(C)c3C)c2cc1OC(=O)N1CCN(C)C[C@@H]1C` [Example 482, 4-(1,5-dimethyl-3-phenyl-1H-pyrazol-4-yl)-7-methoxyquinazolin-6-yl(S)-2,4-dimethylpiperazine-1-carboxylate], the IC50 was determined as 320 nM in assay [1], 207 nM on EGFR L858R and 97 nM on EGFR (d746-750).
